In data set [1] the test system is SK-N-MC neuroepithelioma cells. Nature of the data set: MTT assay, inhibition of growth of SK-N-MC cells. The following applies: 72 h, medium with diferric transferrin 1.25 μM, mean ± SD (three experiments), read-out: IC50 at inhibiting the growth of SK-N-MC neuroepithelioma cells. Format: cell-based, Human. As for the experimental part:
Human SK-N-MC neuroepithelioma cells were obtained from the American Type Culture Collection (ATCC; Manassas, VA). The SK-N-MC cell type was grown as described previously.[51]
The effect of complexes [1a,b]Cl–[3a,b]Cl on the cellular proliferation of SK-N-MC cells was examined using the 1-(4,5-dimethylthiazol-2-yl)-2,5-diphenyl-tetrazolium (MTT) assay by standard techniques.[52],[53] Human SK-N-MC cells were chosen for these studies as the antiproliferative effect of metal complexes has been extensively examined in this cell type.[52]−[54] MTT reduction is proportional to viable cell counts using SK-N-MC cells.[51] SK-N-MC cells were seeded at 1.5 × 10^4 cells/well in 96-well microtiter plates in a medium containing the compounds (0–50 μM) and human diferric transferrin (Tf) at 1.25 μM ([Fe] = 2.5 μM). Control samples contained Tf (1.25 μM) in the absence of the compounds. […] It is essential to add to the media when assessing the antiproliferative activity of the ligands used as positive controls, namely, desferrioxamine (DFO), di-2-pyridylketone 4,4-dimethyl-3-thiosemicarbazone (Dp44mT), and Doxorubicin.[61] The cells were incubated at 37 °C for 72 h, after which 10 μL of MTT solution (stock solution: 5 mg/mL) was added to each well and incubated for 2 h at 37 °C. After cell solubilization using 100 μL of 10% SDS–50% isobutanol in 0.01 M HCl, the plates were read at 570 nm using a scanning multiwell spectrophotometer. The inhibitory concentration (IC50) was defined as the concentration of the compound necessary to reduce the absorbance to 50% of the untreated control.
(Formazan colour is commonly taken as a measure of viable cells.)

Data set [2] can be described thus: Hydrolysis / stability in aqueous media by HPLC. Format: physicochemical. Conditions: for Estimated half-lifetime of the chlorido species: 75 μM solution in 20 mM phosphate buffer at pH 7.40, HPLC with UV detection at 300 nm; for Fraction of complex hydrolyzed after 24 h: 20 mM NaH2PO4/Na2HPO4 buffer at pH 7.40, 24 h, HPLC (Figure S4). As for the experimental part:
One-dimensional (1D) ^1H and ^13C NMR and two-dimensional (2D) ^1H–^1H COSY, ^1H–^1H TOCSY, ^1H–^1H ROESY or ^1H–^1H NOESY, ^1H–^13C HSQC, and ^1H–^13C HMBC NMR spectra were recorded on two Bruker Avance III spectrometers at 500.32 or 500.10 (^1H), and 125.82 or 125.76 (^13C) MHz, respectively, by using DMSO-d6 as a solvent at room temperature and standard pulse programs. ^1H and ^13C shifts are quoted relative to the solvent residual signals. The atom numbering scheme used for NMR assignments is depicted in Supporting Information, Scheme S1. Electrospray ionization mass spectrometry (ESI-MS) was carried out with a Bruker Esquire 3000 instrument, and the samples were dissolved in methanol. Elemental analyses were performed at the Microanalytical Laboratory of the University of Vienna with a PerkinElmer 2400 CHN Elemental Analyzer (PerkinElmer, Waltham, MA). Hydrolysis studies were undertaken on a ThermoFisher Dionex UltiMate 3000 HPLC (Waltham, MA) device. The column compartment was kept at 298 K. A Hypersil Gold C18 Reversed phase Silica Column (250 × 4.6 mm, 5 μm particle size, ThermoFisher; Waltham, MA) equipped with a guard column was used. The complexes were dissolved in either pure deionized water or phosphate buffer at pH 7.40 so that the final concentrations were 100 mM or 75 μM, respectively. Samples were automatically injected into the HPLC, and separation of the hydrolysis products was achieved by applying gradient elution (5–80% or 10–50% acetonitrile in 15 mM aqueous formic acid). Detection and quantification of the peaks was conducted using the ThermoFisher Dionex DAD-3000RS UV detector (Waltham, MA) at a wavelength of 300 nm and the Chromeleon 7 software package (ThermoFisher Dionex, Sunnyvale, CA).
Their stability in deionized water (Supporting Information, Figure S3) is very similar to that in buffered solution at physiological pH (Supporting Information, Figure S4; 20 mM NaH2PO4/Na2HPO4 buffer at pH 7.40). […] Attempts to establish the nature of the predominant hydrolysis reactions were then performed. The fractions containing the two peaks from the hydrolysis of [2a]Cl were collected and subjected to high-resolution ESI mass spectrometry. The most abundant mass at m/z 373.1397 could be attributed to the doubly charged fragment [M–2Cl]^2+, whereas the second peak at m/z 736.2786 was assigned to the hydroxido species [M–2Cl+OH]^+, clearly stemming from hydrolysis of the chlorido ligand.
Data were recorded every hour over 24 h using HPLC with UV detection at 300 nm (see Experimental Section for details). Quantification was done by normalizing the AUC to the AUC at 0 h.

A short description of data set [3]: Stability in DMSO by ESI mass spectrometry. It counts as physicochemical. The following applies: DMSO solution, up to 19 h old, diluted with methanol 1:100, ESI-MS. The source says:
Complexes [3a]Cl and [3b]Cl remain intact when dissolved in DMSO.

Read-outs that look alike come from different tables or passages of the source.

With `CC(=O)N(O)CCCCCNC(=O)CCC(=O)N(O)CCCCCNC(=O)CCC(=O)N(O)CCCCCN` [DFO, desferrioxamine, reference compound], the IC50 (usually the concentration that inhibits the measured activity by half) in data set [1] (Homo sapiens, SK-N-MC) amounted to 9.83 ± 0.39 µM.
Turning to `COc1cccc2c1C(=O)c1c(O)c3c(c(O)c1C2=O)C[C@@](O)(C(=O)CO)C[C@@H]3O[C@H]1C[C@H](N)[C@H](O)[C@H](C)O1` [DOX, doxorubicin, reference compound], in data set [1] (Homo sapiens, SK-N-MC), the IC50 was determined as 0.15 ± 0.05 µM.
For the molecule `CN(C)C(=S)NN=C(c1ccccn1)c1ccccn1` [Dp44mT, di-2-pyridylketone 4,4-dimethyl-3-thiosemicarbazone, reference compound], the IC50 in data set [1] turned out to be 0.004 ± 0.003 µM.
Still for that read-out and setting: the result for “(η^6-p-Cymene)[6-(4-methylpiperazin-1-yl)-κN-(pyridin-2-yl-methylene)-11H-indolo[3,2-c]quinolin-2-κN-amine]chloridoosmium(II) Chloride [[1b]Cl]” reads above 50 µM; that for “(η^6-p-Cymene)[6-(4-methylpiperazin-1-yl)-κN-(pyridin-2-yl-methylene)-11H-indolo[3,2-c]quinolin-2-κN-amine]chloridoruthenium(II) Chloride [[1a]Cl]”, 39.8 ± 2.07 µM.
For the molecule “(η^6-p-Cymene)[6-(4-methylpiperazin-1-yl)-κN-(pyridin-2-yl-methylene)-11H-indolo[3,2-c]quinolin-4-κN-amine]chloridoosmium(II) Chloride [[2b]Cl]”, the IC50 in data set [1] was 19.4 ± 1.28 µM. Further, in data set [2], the “Estimated half-lifetime of the chlorido species” value was “approximately 6 h” and the “Fraction of complex hydrolyzed after 24 h” value is listed as “greater than 90%”.
Consider “(η^6-p-Cymene)[6-(4-methylpiperazin-1-yl)-κN-(pyridin-2-yl-methylene)-11H-indolo[3,2-c]quinolin-4-κN-amine]chloridoruthenium(II) Chloride [[2a]Cl]”, for which the IC50 in data set [1] turned out to be 18.4 ± 2.22 µM. In data set [2], the “Estimated half-lifetime of the chlorido species” value was “approximately 6 h” and the “Fraction of complex hydrolyzed after 24 h” value is listed as “greater than 90%”. Besides, the “AUC of third (minor) hydrolysis species compared to the starting material” value in data set [2] (75 μM solution in 20 mM phosphate buffer at pH 7.40, after 24 h) is on record as “approximately 12%”.
On to “(η^6-p-Cymene)[6-(4-methylpiperazin-1-yl)-κN-(pyridin-2-yl-methylene)-11H-indolo[3,2-c]quinolin-8-κN-amine]chloridoosmium(II) Chloride [[3b]Cl]”, for which the IC50 in data set [1] is 41.2 ± 2.37 µM. Moreover, the “Stability when dissolved in DMSO” value in data set [3] was “remain intact”.
For “(η^6-p-Cymene)[6-(4-methylpiperazin-1-yl)-κN-(pyridin-2-yl-methylene)-11H-indolo[3,2-c]quinolin-8-κN-amine]chloridoruthenium(II) Chloride [[3a]Cl]”, in data set [1], the 50% inhibitory concentration (IC50) was above 50 µM. For the same molecule, the “Stability when dissolved in DMSO” value in data set [3] is recorded as “remain intact”.

The record behind these values is publication PMC4087041, “Effect of the Piperazine Unit and Metal-Binding Site Position on the Solubility and Anti-Proliferative Activity of Ruthenium(II)- and Osmium(II)- Arene Complexes of Isomeric Indolo[3,2-c]quinoline—Piperazine Hybrids” (Inorganic Chemistry, 2014).
